The source of these data is patent publication US8629285B2, “Imidazole compounds that modulate HSP90 activity” (Synta Pharmaceuticals Corp., priority 2005, dated 2014).

For this assay, the system named is Her2. Description: Degradation of Her2 in BT-474 cells (Method 1, SDS-PAGE/immunoblot). In kind it is cell-based, Human. As to conditions: 0.5 μM, overnight. Here is the method: Human high-Her2 breast carcinoma BT474 (HTB-20), SK-BR-3 (HTB-30) and MCF-7 breast carcinoma (HTB-22) from American Type Culture Collection, VA, USA are grown in Dulbecco's modified Eagle's medium with 4 mM L-glutamine and antibiotics (100 IU/ml penicillin and 100 ug/ml streptomycine; GibcoBRL). To obtain exponential cell growth, cells are trypsinized, counted and seeded at a cell density of 0.5×10^6 cells/ml regularly, every 3 days. All experiments are performed on day 1 after cell passage.
BT-474 cells are treated with 0.5 μM, 2 μM, or 5 μM of 17AAG (a positive control) or 0.5 μM, 2 μM, or 5 μM of a compound of the invention overnight in DMEM medium. After treatment, each cytoplasmic sample is prepared from 1×10^6 cells by incubation of cell lysis buffer (#9803, cell Signaling Technology) on ice for 10 minutes. The resulting supernatant used as the cytosol fractions is dissolved with sample buffer for SDS-PAGE and run on a SDS-PAGE gel, blotted onto a nitrocellulose membrane by using semi-dry transfer. Non-specific binding to nitrocellulose is blocked with 5% skim milk in TBS with 0.5% Tween at room temperature for 1 hour, then probed with anti-Her2/ErB2 mAb (rabbit IgG, #2242, Cell Signaling) and anti-Tubulin (T9026, Sigma) as housekeeping control protein. […]
(In western blotting, separated proteins are transferred to a membrane and probed.)

For the compound `C=CCNC1=C2C[C@@H](C)C[C@H](OC)[C@H](O)[C@@H](C)/C=C(\C)[C@H](OC(N)=O)[C@@H](OC)/C=C\C=C(/C)C(=O)NC(=CC1=O)C2=O` [17AAG], the “degradation of Her2” value is given as “partial degradation”.
